From patent US20200345694A1, “ANTIAGING COMPOSITION COMPRISING CYTOCHALASIN D OR SAG, AND METHOD FOR SCREENING ANTIAGING SUBSTANCE” (AMOREPACIFIC CORPORATION, priority 2017, published 2020)

Key:
[1] = test system: Normal human neonatal dermal fibroblasts; experiment: Expression of primary cilia in skin cells (immunofluorescence staining with ARL13B and acetylated tubulin antibodies, confocal microscope); format: cell-based; settings: 48 hours, vs control group (FIG. 1)
Procedure: Normal human neonatal dermal fibroblasts were plated in a Lab-Tex™ 2-well glass chamber slide (Thermo Scientific, Waltham, Mass., USA) with 0.5×10^5 cells per well. 24 hours later, the cells were treated with a test substance (1.5 mL of 0.2 μM cytochalasin D, or 1.5 mL of 2 μM SAG). 48 hours, the cells were immobilized and primary cilia were stained.
The primary cilia were stained with ARL13B (Proteintech) and a-acetylated tubulin (Sigma-Aldrich) antibodies. The cells were incubated overnight at 4° C. with ARL13B antibody diluted to 1/500 based on weight and a-acetylated tubulin antibody diluted to 1/1000 based on weight in a PBS buffer supplemented with 0.1% Triton™ X-100 and 5% normal goat serum. Then, the cells were treated at room temperature for 2 hours with Alexa Fluor 594 goat anti-mouse IgG and 488 goat anti-rabbit IgG (Invitrogen) as secondary antibodies. The nuclei were stained with DAPI and observed under a confocal microscope. The experiment was repeated at least twice for independent test groups.

[2] = test system: normal human dermal fibroblasts; experiment: Procollagen I secreted to the medium of fibroblasts, measured by western blotting; format: cell-based; settings: 48 hours, vs control group (FIG. 2)
Procedure: It was investigated whether the increase in primary cilia leads to increased secretion of procollagen to the medium.
Specifically, normal human dermal fibroblasts were cultured in DMEM supplemented with 10% FBS (fetal bovine serum), 100 mg/L streptomycin and 100,000 U/L penicillin. The cultured fibroblasts seeded onto a 6-well plate with 1×10^5 cells per well and 1.5 mL of a medium containing 0.2 μM cytochalasin D or 2 pM SAG as a test substance was added 24 hours later. This leads to increased expression of primary cilia as in Test Example 1. 48 hours after the treatment with the test substance, the medium was collected and the amount of procollagen I in the medium was measured by western blotting. The procollagen I antibody was purchased from Developmental Studies Hybridoma Bank and diluted in a PBS buffer containing 0.1% Trito™ X-100 and 5% normal goat serum to 1/10000 based on weight. As a control group (loading control), electrophoresed polyacrylamide gel was stained with 0.05% Coomassie blue and then observed. The experiment was repeated at least twice for independent test groups.

Row | Compound | primary cilia of fibroblasts ([1]; 2 μM SAG) | amount of procollagen in fibroblasts (procollagen I in the medium) ([2]; 2 pM SAG (so in the source)) | primary cilia of fibroblasts ([1]; 0.2 μM cytochalasin D) | amount of procollagen in fibroblasts (procollagen I in the medium) ([2]; 0.2 μM cytochalasin D)
1 | CN[C@H]1CC[C@H](N(Cc2cccc(-c3ccncc3)c2)C(=O)c2sc3ccccc3c2Cl)CC1 [SAG, 3-chloro-N-[trans-4-(methylamino)cyclohexyl]-N-[[3-(4-pyridinyl)phenyl]methyl]benzo[b]thiophene-2-carboxamide] | increased | increased |  | 
2 | C=C1C(O)[C@@H]2/C=C/C[C@H](C)C(=O)[C@](C)(O)/C=C/[C@H](OC(C)=O)[C@]23C(=O)N[C@@H](Cc2ccccc2)[C@@H]3[C@@H]1C (stereo partly shown) [cytochalasin D] |  |  | increased | increased
